Values after ≈ are worked out from the molar mass of the structure shown.

This series in a line: Solubility in organic solvents. Format: physicochemical. The settings on record: in dichlorobenzene at 60° C. The text has this: All of the mono-bromo mono-cyano perylenes and dimeric perylenes are sufficiently soluble for processing in conventional organic solvents such as chloroform, xylene, dichlorobenzene, and anisole.
Take `CCCCC(C)N1C(=O)c2ccc3c4c(-c5ccc(-c6ccc(-c7cc8c9c(ccc%10c%11c(C#N)cc%12c%13c(ccc(c7c9%10)c%13%11)C(=O)N(C(C)CCCC)C%12=O)C(=O)N(C(C)CCCC)C8=O)s6)s5)cc5c6c(ccc(c7c(C#N)cc(c2c37)C1=O)c64)C(=O)N(C(C)CCCC)C5=O` (stereo not drawn) [BPDI(1MP)-BT, 5,5′-bis-[N,N′-bis(1-methylpentyl)-1-cyanoperylene-3,4:9,10-bis(dicarboxiimide)-7-yl]-2,2′-bithiophene]: the Solubility was determined as 33900 µg/mL (≈ 25.5 mM). Under `CCCCC(CC)CN1C(=O)c2ccc3c4c(-c5ccc(-c6ccc(-c7cc8c9c(ccc%10c%11c(C#N)cc%12c%13c(ccc(c7c9%10)c%13%11)C(=O)N(CC(CC)CCCC)C%12=O)C(=O)N(CC(CC)CCCC)C8=O)s6)s5)cc5c6c(ccc(c7c(C#N)cc(c2c37)C1=O)c64)C(=O)N(CC(CC)CCCC)C5=O` (stereo not drawn) [BPDI(2EH)-BT, 5,5′-bis-[N,N′-bis(2-ethylhexyl)-1-cyanoperylene-3,4:9,10-bis(dicarboxiimide)-7-yl]-2,2′-bithiophene] stands 5500 µg/mL (≈ 3.81 mM); under `CCCCCCCCN1C(=O)c2ccc3c4c(-c5ccc(-c6ccc(-c7cc8c9c(ccc%10c%11c(C#N)cc%12c%13c(ccc(c7c9%10)c%13%11)C(=O)N(CCCCCCCC)C%12=O)C(=O)N(CCCCCCCC)C8=O)s6)s5)cc5c6c(ccc(c7c(C#N)cc(c2c37)C1=O)c64)C(=O)N(CCCCCCCC)C5=O` [BPDI(8)-BT, 5,5′-bis-[N,N′-bisoctyl-1-cyanoperylene-3,4:9,10-bis(dicarboxiimide)-7-yl]-2,2′-bithiophene], 7800 µg/mL (≈ 5.41 mM).

The record behind these values is patent US8569501B2, “Semiconductor materials and methods of preparation and use thereof” (BASF SE, priority 2008, dated 2013).
